Key:
[1] = system: E. cloacae ATCC23355; experiment: E-test MIC with or without NAB7061 (4 μg/ml), Mueller-Hinton agar; type: cell-based, Enterobacter cloacae
Method: (§1) MICs were determined by using E-strips (Biodisk Ltd., Solna, Sweden) according to the manufacturer's instructions.
(§2) The strains originated from ATCC (11 strains), CCUG (11 strains), and NCTC (The National Collection of Type Cultures, Colindale, U.K.; 2 strains). Eight strains (the F-strains) were purchased from Mobidiag Ltd., Helsinki, Finland.

[2] = system: E. coli ATCC25922; conditions: E. coli ATCC25922
Method: as §1, §2

[3] = system: K. pneumoniae ATCC13883; conditions: K. pneumoniae ATCC13883
Method: as §1, §2

[4] = system: E. coli IH3080; experiment: E-test MIC with or without NAB7061 (4 μg/ml), Mueller-Hinton agar; type: cell-based, Escherichia coli
Method: as §1, §2

[5] = system: Ps. aeruginosa ATCC 27853; experiment: Sensitization to rifampin: growth inhibition around wells on LB plates containing rifampin; type: cell-based, Pseudomonas aeruginosa; conditions: 4 μg
[6] = system: A. baumannii ATCC 19606; experiment: as above; type: cell-based, Acinetobacter baumannii; conditions: 4 μg
[7] = system: Acinetobacter baumannii ATCC 19606; experiment: Growth inhibition around wells on LB agar plates; type: cell-based; conditions: A. baumannii ATCC 19606
Method: (§3) From an overnight-grown culture of IH3080 on LB agar, a suspension of approx. 10^8 cells/ml was prepared in 0.9% NaCl. Aliquots of this suspension were then pipetted on the agar plates and the plates were gently shaken to spread the suspension evenly on the entire surface of the plate. Thereafter, the unabsorbed part of the suspension was removed by using a Pasteur pipette. After the surface had dried, small wells (diameter, 2 mm) were drilled on the plates (five wells per plate) by using a sterile sharp-edged narrow metal tube, single-use pipette tip, and vacuum suction. An alternative method used a swab to spread the inoculum. […] Controls included 0.9% NaCl solution without the compound to be tested. The plates were then incubated for 18 h at 37° C. whereafter the diameters of growth inhibition zones around each well were measured; the diameter of the well itself was not reduced. Finally, the diameters were converted to surface areas of growth inhibition (in square mm).
(§4) Direct antibacterial activity of sixteen NAB compounds against Acinetobacter baumannii ATCC 19606 and Pseudomonas aeruginosa ATCC 27853 was tested by using the susceptibility determination method described in Example 2. Five compounds (NAB7062, NAB734, NAB737, NAB739, and NAB740) had very notable activity against A. baumannii. […] The antibacterial activity of NAB739 and NAB740 were as strong as or even stronger than that of polymyxin B.

[8] = system: E. coli IH3080; experiment: Sensitization to rifampin: growth inhibition around wells on LB plates containing rifampin; type: cell-based, Escherichia coli; conditions: 4 μg of compound
Method: (§5) From an overnight-grown culture of IH3080 on LB agar, a suspension of approx. 10^8 cells/ml was prepared in 0.9% NaCl. Aliquots of this suspension were then pipetted on the agar plates and the plates were gently shaken to spread the suspension evenly on the entire surface of the plate. Thereafter, the unabsorbed part of the suspension was removed by using a Pasteur pipette. After the surface had dried, small wells (diameter, 2 mm) were drilled on the plates (five wells per plate) by using a sterile sharp-edged narrow metal tube, single-use pipette tip, and vacuum suction. An alternative method used a swab to spread the inoculum. Samples (4 μl and 10 μl) of the peptide solution in 0.9% NaCl (at concentrations of 1 μg/ml and 0.1 μg/ml) were then pipetted to the wells and the sample fluids were allowed to absorb. Controls included 0.9% NaCl solution without the compound to be tested. The plates were then incubated for 18 h at 37° C. whereafter the diameters of growth inhibition zones around each well were measured; the diameter of the well itself was not reduced. Finally, the diameters were converted to surface areas of growth inhibition (in square mm).

[9] = system: Pseudomonas aeruginosa ATCC 27853; experiment: Growth inhibition around wells on LB agar plates; type: cell-based; conditions: Ps. aeruginosa ATCC 27853
Method: as §5, §4

[10] = system: E. coli IH3080; experiment: Growth inhibition around wells on LB agar plates; type: cell-based, Escherichia coli
Method: Peptides synthesized in Example 1, all carrying at least two (2) but not more than three (3) positive charges, were studied for their ability to inhibit the growth of E. coli. This was tested employing LB agar (LB Agar Lennox, Difco, BD, Sparks, Md., U.S.A) plates. The indicator organism E. coli IH3080 (K1:O018) was an encapsulated strain originally isolated from a neonate suffering from meningitis (Vaara et al. 1984) and obtained from National Public Health Institute, Helsinki, Finland.
as §3

Compound | Sensitization factor to antibiotic (MIC without / with 4 μg/ml of NAB 7061) [1] | Sensitization factor to antibiotic (MIC without / with 4 μg/ml of NAB 7061) [2] | Sensitization factor to antibiotic (MIC without / with 4 μg/ml of NAB 7061) [3] | Sensitization factor to antibiotic (MIC without / with 4 μg/ml of NAB 7061) [4] | growth inhibition around a well in the presence of rifampin ([5]; rifampin 0 μg/ml) [square millimeters] | growth inhibition around a well in the presence of rifampin ([5]; rifampin 0.1 μg/ml) [square millimeters] | growth inhibition around a well in the presence of rifampin ([5]; rifampin 0.3 μg/ml) [square millimeters] | growth inhibition around a well in the presence of rifampin ([6]; rifampin 0 μg/ml) [square millimeters] | growth inhibition around a well in the presence of rifampin ([6]; rifampin 0.1 μg/ml) [square millimeters] | growth inhibition around a well in the presence of rifampin ([6]; rifampin 0.3 μg/ml) [square millimeters] | growth inhibition around a well ([7]; 4 μg) [square millimeters] | growth inhibition around a well ([7]; 10 μg) [square millimeters] | growth inhibition around a well in the presence of rifampin ([8]; rifampin 0 μg/ml) [square millimeters] | growth inhibition around a well in the presence of rifampin ([8]; rifampin 0.1 μg/ml) [square millimeters] | growth inhibition around a well in the presence of rifampin ([8]; rifampin 1.0 μg/ml) [square millimeters] | growth inhibition around a well ([9]; 4 μg) [square millimeters] | growth inhibition around a well ([9]; 10 μg) [square millimeters] | growth inhibition around a well ([10]; 4 μg of compound per well) [square millimeters] | growth inhibition around a well ([10]; 10 μg of compound per well) [square millimeters]
COc1c(N2C[C@@H]3CCCN[C@@H]3C2)c(F)cc2c(=O)c(C(=O)O)cn(C3CC3)c12 [Moxifloxacin] | 4 |  |  |  |  |  |  |  |  |  |  |  |  |  |  |  |  |  | 
quinupristin-dalfopristin [Quinupristin-dalfopr.] | >5 | >21 | 1 | >21 |  |  |  |  |  |  |  |  |  |  |  |  |  |  | 
COc1cc(Cc2cnc(N)nc2N)cc(OC)c1OC [Trimetoprim] | 3 | 4 | 2 | 3 |  |  |  |  |  |  |  |  |  |  |  |  |  |  | 
OA-Thr-Thr-DSer-cy[Dab-Dab-DPhe-Leu-Dab-Dab-Thr-] [NAB 748] |  |  |  |  | 20 | 13 | 20 | 20 | 133 | 201 | 20 | 50 | 113 | 154 | 154 | 20 | 50 | 113 | 156
Polymyxin B nonapeptide [reference compound] |  |  |  |  | 113 | 113 | 154 | 0 | 133 | 154 | 0 | 0 | 0 | 20 | 113 | 113 | 177 | 0 | 0
OA-Thr-DAla-cy[Dab-Dab-DPhe-Thr-Dab-Dab-Thr-] [NAB 738] |  |  |  |  | 0 |  | 13 | 0 | 95 | 154 | 0 | 0 | 0 | 133 | 177 | 0 | 0 | 0 | 64
CC(=O)NC[C@H]1CN(c2ccc(N3CCOCC3)c(F)c2)C(=O)O1 [Linezolid] | >8 | >11 | >4 | >8 |  |  |  |  |  |  |  |  |  |  |  |  |  |  | 
